Reference: ChEMBL document CHEMBL1135084, “DNA cleavage by aromatic amines” (Bioorg Med Chem Lett, 2002)
Several values for one entry are separate records, joined by “and”; a condition that tells them apart may be missing. Equal values may be shown once.

How the values were obtained:
Type in all cases: functional
Conditions in all cases: Enterobacteria phage phiX174
Nucleic Acid [1] = assay: Percent DNA cleavage induced by administering the compound (0.1 uM) within 12 hr to form RfI DNA was determined by using phiX174 bacteriophage DNA
Nucleic Acid [2] = assay: Percent DNA cleavage induced by administering the compound (0.1 uM) within 12 hr to form RfII DNA was determined by using phiX174 bacteriophage DNA
Nucleic Acid [3] = assay: Percent DNA cleavage induced by administering the compound (0.1 uM) within 12 hr to form RfIII DNA was determined by using phiX174 bacteriophage DNA
Nucleic Acid [4] = assay: Percent DNA cleavage induced by administering the compound (0.1 uM) within 24 hr to form RfI DNA was determined by using phiX174 bacteriophage DNA
Nucleic Acid [5] = assay: Percent DNA cleavage induced by administering the compound (0.1 uM) within 24 hr to form RfII DNA was determined by using phiX174 bacteriophage DNA
Nucleic Acid [6] = assay: Percent DNA cleavage induced by administering the compound (0.1 uM) within 24 hr to form RfIII DNA was determined by using phiX174 bacteriophage DNA
Nucleic Acid [7] = assay: Percent DNA cleavage induced by administering the compound (0.1 uM) within 48 hr to form RfI DNA was determined by using phiX174 bacteriophage DNA
Nucleic Acid [8] = assay: Percent DNA cleavage induced by administering the compound (0.1 uM) within 48 hr to form RfII DNA was determined by using phiX174 bacteriophage DNA
Nucleic Acid [9] = assay: Percent DNA cleavage induced by administering the compound (0.1 uM) within 48 hr to form RfIII DNA was determined by using phiX174 bacteriophage DNA
Nucleic Acid [10] = assay: Percent DNA cleavage induced by administering the compound (1.0 uM) within 12 hr to form RfI DNA was determined by using phiX174 bacteriophage DNA
Nucleic Acid [11] = assay: Percent DNA cleavage induced by administering the compound (1.0 uM) within 12 hr to form RfII DNA was determined by using phiX174 bacteriophage DNA
Nucleic Acid [12] = assay: Percent DNA cleavage induced by administering the compound (1.0 uM) within 12 hr to form RfIII DNA was determined by using phiX174 bacteriophage DNA
Nucleic Acid [13] = assay: Percent DNA cleavage induced by administering the compound within 12 hr to form RfI DNA was determined by using phiX174 bacteriophage DNA
Nucleic Acid [14] = assay: Percent DNA cleavage induced by administering the compound (1.0 uM) within 12 hr to form RfIII DNA was determined by using phiX174 bacteriophage DNA by using phiX174 bacteriophage DNA
Nucleic Acid [15] = assay: Percent DNA cleavage induced by administering the compound (0.1 uM) within 24hto form RfIII DNA was determined by using phiX174 bacteriophage DNA
Nucleic Acid [16] = assay: Percent DNA cleavage induced by administering the compound (0.1 uM), additive 1000 uM distamycin A within 24 hr to form RfI DNA was determined by using phiX174 bacteriophage DNA
Nucleic Acid [17] = assay: Percent DNA cleavage induced by administering the compound (0.1 uM), additive 1000 uM distamycin A within 24 hr to form RfII DNA was determined by using phiX174 bacteriophage DNA
Nucleic Acid [18] = assay: Percent DNA cleavage induced by administering the compound (0.1uM), additive 10 uM distamycin A within 24 hr to form RfI DNA was determined by using phiX174 bacteriophage DNA
Nucleic Acid [19] = assay: Percent DNA cleavage induced by administering the compound (0.1 uM), additive 10 uM distamycin A within 24 hr to form RfII DNA was determined by using phiX174 bacteriophage DNA
Nucleic Acid [20] = assay: Percent DNA cleavage induced by administering the compound (0.1 uM), additive 10 uM distamycin A within 24 hr to form RfIII DNA was determined by using phiX174 bacteriophage DNA
Nucleic Acid [21] = assay: Percent DNA cleavage induced by administering the compound (0.1 uM), additive Ar/N2 within 12 hr to form RfI DNA was determined by using phiX174 bacteriophage DNA
Nucleic Acid [22] = assay: Percent DNA cleavage induced by administering the compound (0.1 uM), additive Ar/N2 within 12 hr to form RfII DNA was determined by using phiX174 bacteriophage DNA
Nucleic Acid [23] = assay: Percent DNA cleavage induced by administering the compound (0.1 uM), additive Ar/N2 within 12 hr to form RfIII DNA was determined by using phiX174 bacteriophage DNA
Nucleic Acid [24] = assay: Percent DNA cleavage induced by administering the compound (0.1 uM), additive 1000 uM distamycin A within 24 hr to form RfIII DNA was determined by using phiX174 bacteriophage DNA
Nucleic Acid [25] = assay: Percent DNA cleavage induced by administering the compound (0.1 uM), additive 100 uM distamycin A within 24 hr to form RfI DNA was determined by using phiX174 bacteriophage DNA
Nucleic Acid [26] = assay: Percent DNA cleavage induced by administering the compound (0.1 uM), additive 100 uM distamycin A within 24 hr to form RfII DNA was determined by using phiX174 bacteriophage DNA
Nucleic Acid [27] = assay: Percent DNA cleavage induced by administering the compound (0.1 uM), additive 100 uM distamycin A within 24 hr to form RfIII DNA was determined by using phiX174 bacteriophage DNA
Nucleic Acid [28] = assay: Percent DNA cleavage induced by administering the compound (0.1 uM), additive 10 mM aliquots of metal chlorides M2+/3- within 12 hr to form RfI DNA was determined by using phiX174 bacteriophage DNA
Nucleic Acid [29] = assay: Percent DNA cleavage induced by administering the compound (0.1 uM), additive 10 mM aliquots of metal chlorides M2+/3- within 12 hr to form RfII DNA was determined by using phiX174 bacteriophage DNA
Nucleic Acid [30] = assay: Percent DNA cleavage induced by administering the compound (0.1 uM), additive 10 mM aliquots of metal chlorides M2+/3- within 12 hr to form RfIII DNA was determined by using phiX174 bacteriophage DNA
Nucleic Acid [31] = assay: Percent DNA cleavage induced by administering the compound (1.0 uM) within 48 hr to form RfI DNA was determined by using phiX174 bacteriophage DNA
Nucleic Acid [32] = assay: Percent DNA cleavage induced by administering the compound (1.0 uM) within 48 hr to form RfII DNA was determined by using phiX174 bacteriophage DNA
Nucleic Acid [33] = assay: Percent DNA cleavage induced by administering the compound (1.0 uM) within 48 hr to form RfIII DNA was determined by using phiX174 bacteriophage DNA

**Q.** With `Nc1cccc(C(=O)Nc2cc(NC(=O)c3ccccc3)cc(C(=O)NCCCCNC(=O)c3cc(NC(=O)c4ccccc4)cc(NC(=O)c4cccc(N)c4)c3)c2)c1` as the molecule, how does the Cleavage (Nucleic Acid [1]) read?
**A.** 37%

**Q.** And the Cleavage (Nucleic Acid [2])?
**A.** 63%

**Q.** What about the Cleavage (Nucleic Acid [3]) of the same molecule?
**A.** 0%

**Q.** Which results are given for `Nc1cc(C(=O)Nc2cc(NC(=O)c3ccccc3)cc(C(=O)NCCNC(=O)c3cc(NC(=O)c4ccccc4)cc(NC(=O)c4cc(N)cc([N+](=O)[O-])c4)c3)c2)cc([N+](=O)[O-])c1`?
**A.** Cleavage (Nucleic Acid [4]): 36%; Cleavage (Nucleic Acid [5]): 64%; Cleavage (Nucleic Acid [6]): 0%; Cleavage (Nucleic Acid [7]): 10%; Cleavage (Nucleic Acid [8]): 90%; Cleavage (Nucleic Acid [9]): 0%

**Q.** Which results are given for `CCOC(=O)c1cc(NC(=O)c2cccc([N+](=O)[O-])c2)cc(NC(=O)c2cc(N)cc([N+](=O)[O-])c2)c1`?
**A.** Cleavage (Nucleic Acid [10]): 44%; Cleavage (Nucleic Acid [11]): 56%; Cleavage (Nucleic Acid [12]): 0%

**Q.** `CCOC(=O)c1cc(N)cc([N+](=O)[O-])c1` was tested. Which Cleavage (Nucleic Acid [13]) did it give?
**A.** 90%

**Q.** And the Cleavage (Nucleic Acid [11])?
**A.** 10%

**Q.** And the Cleavage (Nucleic Acid [14])?
**A.** 0%

**Q.** What does the source list for `Nc1cccc(C(=O)Nc2cc(NC(=O)c3ccccc3)cc(C(=O)NCCNC(=O)c3cc(NC(=O)c4ccccc4)cc(NC(=O)c4cccc(N)c4)c3)c2)c1`?
**A.** Cleavage (Nucleic Acid [4]): 35%; Cleavage (Nucleic Acid [5]): 65%; Cleavage (Nucleic Acid [6]): 0%; Cleavage (Nucleic Acid [7]): 7%; Cleavage (Nucleic Acid [8]): 93%; Cleavage (Nucleic Acid [9]): 0%

**Q.** `COc1cc(N)cc(C(=O)Nc2cc(NC(=O)c3ccccc3)cc(C(=O)NCCNC(=O)c3cc(NC(=O)c4ccccc4)cc(NC(=O)c4cc(N)cc(OC)c4)c3)c2)c1` was tested. Which Cleavage (Nucleic Acid [15]) did it give?
**A.** 0% and 1%

**Q.** Which Cleavage (Nucleic Acid [10]) does the source give for `CCOC(=O)c1cc(NC(=O)c2cc(N)cc(OC)c2)cc(NC(=O)c2cccc([N+](=O)[O-])c2)c1` here?
**A.** 11%

**Q.** What about the Cleavage (Nucleic Acid [11]) of the same molecule?
**A.** 89%

**Q.** What about the Cleavage (Nucleic Acid [12]) of the same molecule?
**A.** 0%

**Q.** Which results are given for `Nc1cccc(C(=O)Nc2cc(NC(=O)c3ccccc3)cc(C(=O)NCNC(=O)c3cc(NC(=O)c4ccccc4)cc(NC(=O)c4cccc(N)c4)c3)c2)c1`?
**A.** Cleavage (Nucleic Acid [4]): 0%; Cleavage (Nucleic Acid [5]): 100%; Cleavage (Nucleic Acid [6]): 0%

**Q.** `Nc1cccc(C(=O)Nc2cc(NC(=O)c3ccccc3)cc(C(=O)NCCCNC(=O)c3cc(NC(=O)c4ccccc4)cc(NC(=O)c4cccc(N)c4)c3)c2)c1` was tested. Which Cleavage (Nucleic Acid [4]) did it give?
**A.** 24%

**Q.** And the Cleavage (Nucleic Acid [5])?
**A.** 76%

**Q.** And the Cleavage (Nucleic Acid [6])?
**A.** 0%

**Q.** What about the Cleavage (Nucleic Acid [7]) of the same molecule?
**A.** 1%

**Q.** What about the Cleavage (Nucleic Acid [8]) of the same molecule?
**A.** 99%

**Q.** What about the Cleavage (Nucleic Acid [9]) of the same molecule?
**A.** 0%

**Q.** And the Cleavage (Nucleic Acid [16])?
**A.** 95%

**Q.** And the Cleavage (Nucleic Acid [17])?
**A.** 5%

**Q.** And the Cleavage (Nucleic Acid [18])?
**A.** 25%

**Q.** And the Cleavage (Nucleic Acid [19])?
**A.** 75%

**Q.** What about the Cleavage (Nucleic Acid [20]) of the same molecule?
**A.** 0%

**Q.** And the Cleavage (Nucleic Acid [21])?
**A.** 26%

**Q.** And the Cleavage (Nucleic Acid [22])?
**A.** 74%

**Q.** And the Cleavage (Nucleic Acid [23])?
**A.** 0%

**Q.** What about the Cleavage (Nucleic Acid [24]) of the same molecule?
**A.** 0%

**Q.** What about the Cleavage (Nucleic Acid [25]) of the same molecule?
**A.** 65%

**Q.** What about the Cleavage (Nucleic Acid [26]) of the same molecule?
**A.** 35%

**Q.** What about the Cleavage (Nucleic Acid [27]) of the same molecule?
**A.** 0%

**Q.** What about the Cleavage (Nucleic Acid [28]) of the same molecule?
**A.** 27%

**Q.** What about the Cleavage (Nucleic Acid [29]) of the same molecule?
**A.** 73%

**Q.** And the Cleavage (Nucleic Acid [30])?
**A.** 0%

**Q.** Which Cleavage (Nucleic Acid [4]) does the source give for `Nc1cccc(C(=O)Nc2cc(NC(=O)c3ccccc3)cc(C(=O)NCCCCCNC(=O)c3cc(NC(=O)c4ccccc4)cc(NC(=O)c4cccc(N)c4)c3)c2)c1` here?
**A.** 35%

**Q.** What about the Cleavage (Nucleic Acid [5]) of the same molecule?
**A.** 65%

**Q.** And the Cleavage (Nucleic Acid [6])?
**A.** 0%

**Q.** What does the source list for `CCOC(=O)c1cc(NC(=O)c2cccc(N)c2)cc(NC(=O)c2cccc([N+](=O)[O-])c2)c1`?
**A.** Cleavage (Nucleic Acid [31]): 0%; Cleavage (Nucleic Acid [32]): 75%; Cleavage (Nucleic Acid [33]): 25%; Cleavage (Nucleic Acid [10]): 1%; Cleavage (Nucleic Acid [11]): 99%; Cleavage (Nucleic Acid [12]): 0%

**Q.** What does the source list for `Nc1cccc(C(=O)Nc2cc(NC(=O)c3ccccc3)cc(C(=O)NCCCCCCNC(=O)c3cc(NC(=O)c4ccccc4)cc(NC(=O)c4cccc(N)c4)c3)c2)c1`?
**A.** Cleavage (Nucleic Acid [1]): 38%; Cleavage (Nucleic Acid [2]): 62%; Cleavage (Nucleic Acid [3]): 0%
